From US20130137691A1, “DERIVATIVES OF OXADIAZOLE AND PYRIDAZINE, THEIR PREPARATION AND THEIR APPLICATION IN THERAPEUTICS” (SANOFI, priority 2010, published 2013)

What was measured:
[1] = target: T1, DGAT-1 enzyme (Homo sapiens, UniProt O75907); test: DGAT-1 enzyme inhibition, phase partitioning assay (PPA), 96-well; assay type: biochemical; conditions: recombinant DGAT-1 produced in Sf9 insect cells; 1,2-di(cis-9-octadecenoyl)-sn-glycerol and octanoylCoA; read-out: IC50, concentration that inhibits 50% of the activity of DGAT-1
T1 construct: made in house; host or cells: Sf9 insect cells (baculovirus)
T1 sequence (O75907 1-488): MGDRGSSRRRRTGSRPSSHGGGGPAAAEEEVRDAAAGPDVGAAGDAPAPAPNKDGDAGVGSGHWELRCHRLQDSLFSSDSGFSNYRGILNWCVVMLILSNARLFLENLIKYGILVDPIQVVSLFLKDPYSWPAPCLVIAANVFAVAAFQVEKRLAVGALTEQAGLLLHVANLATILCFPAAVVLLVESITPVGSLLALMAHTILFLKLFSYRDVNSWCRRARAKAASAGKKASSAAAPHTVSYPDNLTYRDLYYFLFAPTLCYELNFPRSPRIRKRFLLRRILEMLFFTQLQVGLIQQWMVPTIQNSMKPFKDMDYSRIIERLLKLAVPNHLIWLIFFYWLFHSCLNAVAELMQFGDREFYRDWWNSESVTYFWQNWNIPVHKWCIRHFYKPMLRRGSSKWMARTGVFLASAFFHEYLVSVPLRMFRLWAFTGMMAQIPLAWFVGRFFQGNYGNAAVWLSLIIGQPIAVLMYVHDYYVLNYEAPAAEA
Protocol: The recombinant DGAT-1 protein was produced in Sf9 insect cells transfected with a baculovirus. The reaction was carried out by incubating the enzyme in the presence of 1,2-di(cis-9-octadecenoyl)-sn-glycerol and octanoylCoA. The amount of triacylglycerol formed during the reaction is measured. […] The radioactivity is measured using a MicroBeta counter (Perkin Elmer).

[2] = test system: triglyceride biosynthesis in Chang liver cells; test: Inhibition of triglyceride biosynthesis in Chang liver cells ([14C] glycerol incorporation); conditions: read-out: inhibitory activity on triglyceride biosynthesis, concentration that inhibits 50% of the activity
Protocol: These trials consisted in measuring the in vitro inhibitory activity of the compounds of the invention on a cell test.
Chang liver cells at 80% confluence are detached with trypsin-EDTA, 4 ml per 175 cm^2 flask. After centrifugation at 1300×g for 5 minutes, the cell pellet is washed once with PBS and then resuspended in whole medium. The number of cells and their viability are determined on Mallassez cells via the exclusion method with trypan blue.
150 000 cells are inoculated per well into a 24-well plate for a minimum of 3 h in DMEM medium 4.5 g/l of glucose supplemented with 10% FCS and with antibiotics, and are maintained at 37° C. in an incubator with CO2 (5%).
After 3 h, the cells have adhered, the medium is removed and replaced overnight with DMEM medium 4.5 g/l of glucose with 2% of BSA/oleate.
Next, the cell membranes are destroyed by sonication on a water bath, for 30 minutes. […] The radioactivity is measured using a Flo One C625TR machine (Perkin-Elmer).
The inhibitory activity on triglyceride biosynthesis is given by the concentration that inhibits 50% of the activity.

Structure (SMILES) | IC50 [1] [nM] | melting point [°C] | IC50 [2] [nM]
COc1ccc(-c2ccc(NC(=O)c3ccc(O[C@H]4CC[C@@H](C(=O)O)CC4)cc3)nn2)cc1 [Compound 12, cis-4-{4-[6-(4-methoxyphenyl)pyridazin-3-ylcarbamoyl]phenoxy}-cyclohexanecarboxylic acid] | 7180 | 319 to 322 | –
O=C(Nc1nc(COc2ccccc2)no1)c1ccc(O[C@H]2CC[C@@H](C(=O)O)CC2)cc1 [Compound 8, cis-4-[4-(3-phenoxymethyl[1.2.4]oxadiazol-5-ylcarbamoyl)phenoxy]cyclohexanecarboxylic acid] | 94 | 210 to 212 | 319
O=C(Nc1ccc(NC2CCCC2)nn1)c1ccc(O[C@H]2CC[C@@H](C(=O)O)CC2)cc1 [Compound 9, cis 4-[4-(6-cyclopentylaminopyridazin-3-ylcarbamoyl)phenoxy]-cyclohexanecarboxylic acid] | 51 | – | –
O=C(O)CC1CCC(c2ccc(C(=O)Nc3ccc(Cc4ccccc4)nn3)cc2)CC1 (stereo not drawn) [Compound 3, {4-[4-(6-benzylpyridazin-3-ylcarbamoyl)phenyl]cyclohexyl}acetic acid] | 890 | – | –
O=C(Nc1nc(C2(c3ccccc3)CC2)no1)c1ccc(O[C@H]2CC[C@@H](C(=O)O)CC2)cc1 [Compound 6, cis-4-{4-[3-(1-phenylcyclopropyl)[1.2.4]oxadiazol-5-ylcarbamoyl]phenoxy}-cyclohexanecarboxylic acid] | 3760 | 215 to 222 | –
CC(C)(c1ccccc1)c1noc(NC(=O)c2ccc(O[C@H]3CC[C@@H](C(=O)O)CC3)cc2)n1 [Compound 7] | 5700 | 250 to 255 | –
O=C(Nc1ccc(Nc2ccccc2)nn1)c1ccc(O[C@H]2CC[C@@H](C(=O)O)CC2)cc1 [Compound 11, cis-4-[4-(6-phenylaminopyridazin-3-ylcarbamoyl)phenoxy]cyclohexanecarboxylic acid] | 5910 | 259 to 261 | –
O=C(Nc1nc(Cc2ccccc2)no1)c1ccc(O[C@H]2CC[C@@H](C(=O)O)CC2)nc1 [Compound 10, cis-4-[5-(3-benzyl[1.2.4]oxadiazol-5-ylcarbamoyl)pyridin-2-yloxy]-cyclohexanecarboxylic acid] | 81 | 205 to 210 | –

Continued, in another order:

IC50 [1] [nM] | melting point [°C] | Structure (SMILES) | IC50 [2] [nM]
927 | 193 | O=C(O)CC[C@H]1CC[C@H](c2ccc(C(=O)Nc3nc(Cc4ccccc4)no3)cc2)CC1 [Compound 3d, trans-3-{4-[4-(3-benzyl[1.2.4]oxadiazol-5-ylcarbamoyl)phenyl]cyclohexyl}propionic acid] | –
742 | 187 | O=C(Nc1nc(Cc2ccccc2)no1)c1ccc(C2CCC(C3CC3C(=O)O)CC2)cc1 (stereo not drawn) [Compound 3b, trans-2-{4-[4-(3-benzyl[1.2.4]oxadiazol-5-ylcarbamoyl)phenyl]cyclohexyl}cyclopropanecarboxylic acid] | –
2210 | 210 | O=C(O)/C=C/[C@H]1CC[C@H](c2ccc(C(=O)Nc3nc(Cc4ccccc4)no3)cc2)CC1 [Compound 3c, (E)-3-{4-[4-(3-benzyl[1.2.4]oxadiazol-5-ylcarbamoyl)phenyl]cyclohexyl}acrylic acid] | –
